In US9295717B2, “Vaccine composition comprising 5′-cap modified RNA” (BIONTECH AG, priority 2009, dated 2016):
“And” between values parts separate entries of the source, which are not always exact repeats. Identical values can stand only once. “Also recorded” adds a separate entry of the source.

What was measured:
[1] = test system: immature dendritic cells (iDCs); assay: Luciferase expression after electroporation of 5′-capped luciferase RNA into immature dendritic cells; assay type: cell-based, human; details: for transl. efficiency: maximal slope of curve; for transl. efficiency / relative total protein expression: m7GpppG RNA set to 1, mean ± SD; for relative total protein expression: luciferase, 72 h time course
[2] = test system: mature dendritic cells (mDCs); assay: Luciferase expression after electroporation of 5′-capped luciferase RNA into mature dendritic cells; assay type: cell-based, human; details: for protein expression (in words) / transl. efficiency: luciferase RNA; for transl. efficiency: maximal slope of curve; for transl. efficiency / relative total protein expression: m7GpppG RNA set to 1, mean ± SD; for relative total protein expression: luciferase, 72 h time course; for time of max.: time point of maximal luciferase expression, mean ± SD
immature dendritic cells [3] = assay: d2eGFP expression (flow cytometry) after introduction of capped RNA into immature dendritic cells; assay type: cell-based, human; details: iDCs
immature dendritic cells [4] = assay: Luciferase activity with increasing RNA amounts (40 vs 20 pmol) in immature dendritic cells; assay type: cell-based; details: iDCs
Procedure: (§1) FIG. 3. Competition for translation between ARCA- and beta-S-ARCA(D1)-capped RNAs. Immature dendritic cells (iDCs) were electroporated with (A) increasing amounts of luciferase-encoding RNAs or (B) the indicated amounts of luciferase- and d2eGFP-encoding mRNAs, which were co-transcriptionally capped either with ARCA or beta-S-ARCA(D1) as indicated. The luciferase activity was measured after 2, 4, 8, 24, 48, and 72 hours. Shown is (A) the ratio between the luciferase activities obtained after electroporation with 40 and 20 pmol luciferase-encoding RNAs (±SD of two independent experiments), and (B) the relative luciferase activity compared to cells electroporated with only luciferase-encoding RNA without RNA (set to 1 for both ARCA- and beta-S-ARCA(D1)-capped RNA).
The results described so far indicate that the translational efficiency of an mRNA is influenced in dendritic cells by the type of the cap structure at its 5′ end. This is most likely due to differences in the efficiency by which the translational machinery is recruited to the different 5′ cap-structures. To corroborate this, we next analyzed (i) the effect of the RNA dose that is used for electroporation into immature dendritic cells, and (ii) the impact of a second RNA co-electroporated into immature dendritic cells on the protein expression. By increasing the amount of the electroporated mRNA, it is expected that at some point one or more translation factor(s) will become rate limiting in the cell, which will then restrict the amount of protein that can be synthesized from the exogenous RNA. Similarly, a second RNA will compete for the translation machinery, again influencing the translation efficiency.
Increasing amounts (20 pmol and 40 pmol) of luciferase-encoding RNAs co-transcriptionally capped with either ARCA or beta-S-ARCA(D1) were electroporated into immature dendritic cells, and the luciferase activity was measured after 2, 4, 8, 24, 48, and 72 hours. […] At this time-point, the level of luciferase protein was only about 1.6-fold as high as when half the amount of RNA was used. This ratio decreased even further 48 and 72 hours after electroporation (1.4- and 1.2-fold, respectively).

[5] = test system: immature dendritic cells (iDCs); assay: RNA stability (half-life) by real time RT-PCR of d2eGFP RNA in immature dendritic cells; assay type: cell-based, human
[6] = test system: inguinal lymph nodes of mice; assay: In vivo luciferase imaging after intranodal injection of luciferase RNA
Procedure: FIG. 5. Effect of the 5′-cap structure on protein expression in vivo. Mice (n=9) have been injected intranodally with the same amount of luciferase encoding RNA with ARCA or beta-S-ARCA(D1) at the 5′-end (as indicated). The luciferase activity (given in RLU) has been measured after 2, 4, 8, 24, 48, and 72 hours. (A) Images of whole animals at the indicated time points of a representative mouse, which has been injected with ARCA or beta-S-ARCA(D1) RNA are shown. (B) Mean±standard error of the mean as measured in the time course. The significance has been determined using statistical analyses (*: P<0.005 and **: P<0.02).
RNA which is administered in this way is primarily taken up by immature dendritic cells. Thus, we have investigated whether stronger protein expression is also observed in lymph nodes for beta-S-ARCA(D1) RNA compared to RNAs with other cap structures (analyzed exemplarily for ARCA which we have applied in the earlier studies). […] After uptake of the RNA by cells of the lymph nodes and translation of the encoded luciferase, protein expression was quantified by measuring luciferase activity using in vivo imaging. […] 25 min after luciferin injection, photons emitted were quantified for an integration time of 1 min. […] To quantify the bioluminescence, regions of interest (ROI) were drawn and total flux (photons/sec, p/s) in ROI was measured. […]

CD8^+-T-cells = assay: De novo T-cell priming after intranodal RNA immunization (tetramer staining); assay type: in vivo; details: mice; intranodal immunization day 0 and day 3; day 8
Procedure: FIG. 6. Effect of the 5′-cap structure on de novo priming of T-cells after intranodal immunization with RNA. Mice (n=5) have been immunized by intranodal injection twice […] (day 0 and day 3) with the same amount of RNA encoding a specific peptide antigen which either carries ARCA or beta-S-ARCA(D1) at the 5′-end. The frequency of tetramer positive CD8^+-cells was determined on day 8 using tetramer analysis. (A) Representative dot plots of cells from the peripheral blood and the spleen of mice which have been immunized with ARCA or beta-S-ARCA(D1) RNA (as indicated). (B) Average number of tetramer positive CD8^+-cells±standard error of the mean (in %) as measured on day 8. The significance was determined using statistical analyses (*: P<0.075).
Mice were immunized by intranodal injection of naked RNA twice […] (at day 0 and at day 3) which encodes a specific antigen with the above modifications. On day 8 the frequency of antigen-specific T-cells in peripheral blood and in the spleen was determined using tetramer staining. As shown in FIG. 6 about 5% of the CD8^+-T-cells in peripheral blood and about 6% of the CD8^+-T-cells in the spleen were tetramer positive after duplicate immunization with ARCA RNA. Using beta-S-ARCA(D1) RNA more than 12% and 13% tetramer positive CD8^+-T-cells in peripheral blood and in the spleen, respectively, were measured.

Dcp2 = Dcp2 (Homo sapiens, UniProt Q8IU60); details: background, earlier work; cited from earlier work
mature dendritic cells = assay: d2eGFP expression (flow cytometry) after introduction of capped RNA into mature dendritic cells; assay type: cell-based, human; details: mDCs
HC11 cells = details: background, earlier work; cited from earlier work
immature dendritic cells [7] = assay: Competition for translation: co-electroporation of d2eGFP RNA with luciferase RNA in immature dendritic cells; assay type: cell-based; details: iDCs; same amount of d2eGFP RNA; after 24, 48, and 72 hours vs luciferase RNA only
Procedure: as §1
The results described so far indicate that the translational efficiency of an mRNA is influenced in dendritic cells by the type of the cap structure at its 5′ end. This is most likely due to differences in the efficiency by which the translational machinery is recruited to the different 5′ cap-structures. To corroborate this, we next analyzed (i) the effect of the RNA dose that is used for electroporation into immature dendritic cells, and (ii) the impact of a second RNA co-electroporated into immature dendritic cells on the protein expression. […]

[8] = time point of maximal luciferase expression (functional RNA stability), mean ± SD

| Substance | total protein expression (in words) ([1]; luciferase RNA) | transl. efficiency ([1]; luciferase RNA) | relative total protein expression [1] | protein expression (in words) [2] | transl. efficiency [2] | relative total protein expression [2] | time of max. [1, 8] | time of max. [2] [h] | translation efficiency increase in comparison to RNA with m^7GpppG ([1]; luciferase RNA) | other results |
| --- | --- | --- | --- | --- | --- | --- | --- | --- | --- | --- |
| ApppG | do not result in any significant expression | 0.01 ± 0.00 | 0.022 ± 0.001 | do not result in protein expression | 0.01 ± 0.00 | 0.008 ± 0.000 |  |  |  |  |
| GpppG | do not result in any significant expression | 0.18 ± 0.01 | 0.221 ± 0.001 | do not result in protein expression | 0.31 ± 0.02 | 0.593 ± 0.005 | 11.5 ± 0.0 h | 27.5 ± 0.5 |  |  |
| m2^(7,2′-O)GppspG(D1) [beta-S-ARCA(D1)] | highest total protein expression | 3.36 ± 0.09 | 13.094 ± 0.307 |  | 3.05 ± 0.14 | 3.884 ± 0.032 |  | 20.1 ± 0.1 | about 3.4 fold | expression increase (factor) compared to RNA with ARCA or post-transcriptionally modified RNA ([1]; luciferase RNA): around 3; total protein expression increase compared to RNA synthesized in presence of m^7GpppG ([1]; luciferase RNA): more than 13 fold; total protein expression increase compared to beta-S-ARCA(D2) RNA ([1]; luciferase RNA): about 2 fold; total protein expression (in words) (immature dendritic cells [3]): highest total protein expression; signal with 40 pmol relative to 20 pmol RNA (immature dendritic cells [4]; each time-point (2-72 hours)): about twice as high; RNA stability / degradation (in words) [5]: most stable RNA; protein expression compared to RNA with ARCA (in words) ([6]; 2, 4, 8, 24, 48, and 72 hours after intranodal application): higher at each time point; expression throughout the entire time course (integral of the curve), increase vs ARCA RNA ([6]; intranodal injection, luciferase, 2-72 hours): about 8 fold; tetramer positive CD8^+-T-cells in peripheral blood (CD8^+-T-cells): more than 12%; tetramer positive CD8^+-T-cells in the spleen (CD8^+-T-cells): > 13%; Dcp2 cleavage compared to RNA with unmodified ARCA 5′-cap (Dcp2): 71% |
| m2^(7,2′-O)GppspG(D2) [beta-S-ARCA(D2)] | second best total expression | 3.53 ± 0.17 | 6.570 ± 0.075 | highest protein expression | 3.30 ± 0.03 | 4.042 ± 0.053 | 12.8 ± 0.0 h | 19.4 ± 0.1 | about 3.5 fold | total protein expression (in words) (mature dendritic cells): highest total protein expression; Dcp2 cleavage compared to RNA with unmodified ARCA 5′-cap (Dcp2): 6%; translation / total expression in HC11 cells (in words) (HC11 cells): more efficiently translated in HC11 cells; also recorded: strongest total expression |
| m2^(7,3′-O)GpppG [ARCA] |  | 2.52 ± 0.19 | 4.777 ± 0.042 |  | 2.16 ± 0.00 | 2.526 ± 0.015 | 12 h and 12.6 ± 0.1 h | 17.5 ± 0.3 | about 2.5 fold | level of luciferase protein with 40 pmol relative to 20 pmol RNA (immature dendritic cells [4]; 24 hours after electroporation): about 1.6 fold; level of luciferase protein with 40 pmol relative to 20 pmol RNA (immature dendritic cells [4]; 48 hours after electroporation): 1.4 fold; level of luciferase protein with 40 pmol relative to 20 pmol RNA (immature dendritic cells [4]; 72 hours after electroporation): 1.2 fold; effect of co-electroporated d2eGFP RNA on expression of luciferase RNA (immature dendritic cells [7]): decreased the expression; tetramer positive CD8^+-T-cells in peripheral blood (CD8^+-T-cells): about 5%; tetramer positive CD8^+-T-cells in the spleen (CD8^+-T-cells): about 6% |
| m^7GpppG [m7GpppG] |  | 1.00 ± 0.04 | 1.000 ± 0.007 |  | 1.00 ± 0.05 | 1.000 ± 0.003 | 8.1 ± 1.1 h | 16.0 ± 0.3 |  | time of max. (hours) ([1]; time point of maximal luciferase expression (functional RNA stability), mean ± SD, listed as m^7GpppG): around 8 hours |
| m^7Gppppm^7G [m7Gppppm7G] | even lower than that of RNA which has been transcribed in presence of m^7GpppG | 0.20 ± 0.10 | 0.404 ± 0.004 | poorly translated | 0.56 ± 0.04 | 0.176 ± 0.001 | 4.9 ± 0.1 h | 6.0 ± 0.3 |  | RNA stability / degradation (in words) [5]: most unstable RNA |
